The values below come from ChEMBL document CHEMBL2073899, “Quantitative distinctions of active site molecular recognition by P-glycoprotein and cytochrome P450 3A4” (Chem Res Toxicol, 2001).

In the assay the target is ATP-dependent translocase ABCB1 (Homo sapiens, UniProt P08183). As to the kind of experiment: TP_TRANSPORTER: inhibition of Daunorubicin efflux in NIH-3T3-G185 cells.
ATP-dependent translocase ABCB1, sequence (P08183 whole entry): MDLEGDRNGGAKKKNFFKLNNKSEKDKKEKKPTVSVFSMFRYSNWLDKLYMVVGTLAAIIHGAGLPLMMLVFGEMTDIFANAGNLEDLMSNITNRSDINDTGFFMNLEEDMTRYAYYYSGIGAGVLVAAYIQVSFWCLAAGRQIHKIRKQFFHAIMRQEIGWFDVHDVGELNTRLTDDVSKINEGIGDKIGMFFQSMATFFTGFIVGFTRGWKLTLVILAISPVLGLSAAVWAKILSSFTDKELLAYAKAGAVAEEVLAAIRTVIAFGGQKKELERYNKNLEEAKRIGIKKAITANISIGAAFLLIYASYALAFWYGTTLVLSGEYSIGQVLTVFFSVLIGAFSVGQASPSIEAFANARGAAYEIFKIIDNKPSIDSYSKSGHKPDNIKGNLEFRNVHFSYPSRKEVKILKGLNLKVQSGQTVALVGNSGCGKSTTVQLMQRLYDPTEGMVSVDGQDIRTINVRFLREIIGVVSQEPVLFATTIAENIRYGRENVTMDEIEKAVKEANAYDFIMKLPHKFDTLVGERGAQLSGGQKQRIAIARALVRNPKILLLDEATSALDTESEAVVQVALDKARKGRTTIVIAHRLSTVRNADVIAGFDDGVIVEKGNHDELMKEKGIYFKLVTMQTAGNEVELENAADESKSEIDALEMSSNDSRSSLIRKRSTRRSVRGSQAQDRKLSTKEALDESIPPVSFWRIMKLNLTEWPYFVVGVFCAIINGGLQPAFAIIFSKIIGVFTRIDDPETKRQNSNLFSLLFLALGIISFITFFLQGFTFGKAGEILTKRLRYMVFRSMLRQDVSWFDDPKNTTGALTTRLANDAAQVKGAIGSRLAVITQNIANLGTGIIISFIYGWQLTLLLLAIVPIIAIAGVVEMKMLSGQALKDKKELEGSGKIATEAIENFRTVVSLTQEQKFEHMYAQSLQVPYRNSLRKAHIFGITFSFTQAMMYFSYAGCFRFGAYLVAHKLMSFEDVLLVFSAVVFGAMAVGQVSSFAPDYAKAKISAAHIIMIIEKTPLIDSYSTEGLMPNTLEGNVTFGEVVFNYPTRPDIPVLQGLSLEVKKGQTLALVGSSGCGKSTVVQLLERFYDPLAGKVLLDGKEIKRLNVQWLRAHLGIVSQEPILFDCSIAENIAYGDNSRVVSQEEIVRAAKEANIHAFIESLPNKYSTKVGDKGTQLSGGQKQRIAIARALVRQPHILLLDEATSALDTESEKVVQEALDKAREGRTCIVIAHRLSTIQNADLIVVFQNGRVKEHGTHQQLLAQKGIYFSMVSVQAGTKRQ

Broadly, the IC50 is the concentration that gives 50% inhibition. Low values mean inhibition by little substance, high ones a need for much substance. Regarding `CC(=O)S[C@@H]1CC2=CC(=O)CC[C@]2(C)[C@H]2CC[C@@]3(C)[C@@H](CC[C@@]34CCC(=O)O4)[C@H]12` [SPIRONOLACTONE], the IC50 stood at 23.6 µM.

`COC(=O)C1=C(C)NC(C)=C(C(=O)OC)C1c1ccccc1[N+](=O)[O-]` [NIFEDIPINE] gave an IC50 of 113 µM.

Turning to `CC(C)[C@@H]1NC(=O)[C@H](C)OC(=O)[C@@H](C(C)C)NC(=O)[C@@H](C(C)C)OC(=O)[C@H](C(C)C)NC(=O)[C@H](C)OC(=O)[C@@H](C(C)C)NC(=O)[C@@H](C(C)C)OC(=O)[C@H](C(C)C)NC(=O)[C@H](C)OC(=O)[C@@H](C(C)C)NC(=O)[C@@H](C(C)C)OC1=O` [VALINOMYCIN], 3.2 µM corresponded to half-maximal inhibition (IC50).

`COc1ccc(-c2cc(=O)c3c(OC)c(OC)c(OC)c(OC)c3o2)cc1OC` [NOBILETIN] returned a 50% inhibitory concentration (IC50) of 11.5 µM.

Compound `COc1ccc(CCNCCCC(C#N)(c2ccc(OC)c(OC)c2)C(C)C)cc1OC` (stereo unspecified) [NORVERAPAMIL] showed an IC50 of 0.9 µM.

The compound `COc1ccc(CCN(C)CCCC(C#N)(c2cc(OC)c(OC)c(OC)c2)C(C)C)cc1OC` (stereo unspecified) [GALLOPAMIL] returned a half-inhibitory concentration (IC50) of 3.2 µM.
